Common to all, as to assay: whole-cell patch clamp, SCAM block of ICl,swell
Holding throughout (assay type): cell-based
Details in all cases: read-out: % block

The target of assay [1] is T1, TTYH1 (Mus musculus, UniProt Q9D3A9, V164C).
T1 sequence (Q9D3A9 1-450 V164C): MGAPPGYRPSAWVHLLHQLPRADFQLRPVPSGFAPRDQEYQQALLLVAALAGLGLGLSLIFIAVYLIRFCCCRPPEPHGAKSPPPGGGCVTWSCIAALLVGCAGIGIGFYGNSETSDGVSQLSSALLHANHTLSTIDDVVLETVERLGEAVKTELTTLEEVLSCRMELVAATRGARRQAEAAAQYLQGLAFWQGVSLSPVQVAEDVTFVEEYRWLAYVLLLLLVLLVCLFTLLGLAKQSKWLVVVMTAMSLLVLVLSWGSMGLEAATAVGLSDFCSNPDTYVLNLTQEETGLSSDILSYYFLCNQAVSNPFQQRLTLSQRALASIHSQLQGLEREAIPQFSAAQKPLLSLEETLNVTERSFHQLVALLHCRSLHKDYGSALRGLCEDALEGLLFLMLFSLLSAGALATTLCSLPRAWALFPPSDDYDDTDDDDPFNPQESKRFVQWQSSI

In assay [2] the target is T2, TTYH1 (Mus musculus, UniProt Q9D3A9).
T2 sequence (Q9D3A9 1-450): T1 sequence (Q9D3A9 1-450 V164C) with C164V

Assay [3] addresses T3, TTYH1 (Mus musculus, UniProt Q9D3A9, R165C).
T3 sequence (Q9D3A9 1-450 R165C): T1 sequence (Q9D3A9 1-450 V164C) with C164V, R165C

For 1 compound, inhibition results are on record in publication PMC6526117 (Experimental Neurobiology, 2019).

The structures appear in SMILES notation. Where a chain is given by its changes, count along the chain named.

For `CS(=O)(=O)SCCS(=O)(=O)O` [MTSES], the inhibition at 100000 µM on TTYH1 [1] is 28.9%; at TTYH1 [2], 9.01%; on TTYH1 [3], 36.6%.
